Earlier results as cited in article PMC8650797 (The ocular surface, 2020).

System: herpes simplex virus DNA polymerase
Settings: native peptide; ref [29] Digard et al.

Which “activity in blocking DNA synthesis in vitro” value does the source give for EETRRMLHRAFDTLA here?
The value was “very poor activity”.
